Results as given in patent US11123334B2 (priority 2018, dated 2021).

How the values were obtained:
rhesus monkeys [1] = test: Intravenous drug self-administration (heroin or cocaine), fixed-ratio 30 schedule; type: in vivo; conditions: for duration of action on responding for heroin (in words): after a single administration; for responding for cocaine: naltrexone 0.032 mg/kg, MCAM 0.32 mg/kg, cocaine 0.032 mg/kg/infusion; for responding for heroin: session following s.c. pretreatment, heroin 0.0032 mg/kg/infusion
rhesus monkeys [2] = test: Heroin-induced respiratory depression, head plethysmograph, seated monkeys; conditions: for antagonism of respiratory-depressant effects of heroin: day after (24 hours after) antagonist administration; for duration in reversing and protecting against heroin-induced respiratory depression: FIG. 2
μ opioid receptors = biological target: T1, μ opioid receptors (Mus musculus, UniProt P42866); conditions: cited from earlier work
T1 construct: host or cells: live mouse (endogenous receptor)
T1 sequence (P42866 whole entry): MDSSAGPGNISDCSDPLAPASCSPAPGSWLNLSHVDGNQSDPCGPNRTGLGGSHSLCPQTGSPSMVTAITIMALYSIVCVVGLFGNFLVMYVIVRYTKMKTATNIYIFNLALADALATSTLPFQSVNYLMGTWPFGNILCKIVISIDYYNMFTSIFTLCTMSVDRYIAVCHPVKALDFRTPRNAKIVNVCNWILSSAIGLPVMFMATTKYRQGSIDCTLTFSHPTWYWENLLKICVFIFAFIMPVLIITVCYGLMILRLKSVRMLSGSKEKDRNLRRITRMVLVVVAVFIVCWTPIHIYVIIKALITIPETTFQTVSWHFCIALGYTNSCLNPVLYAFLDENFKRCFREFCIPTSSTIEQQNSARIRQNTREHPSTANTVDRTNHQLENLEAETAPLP

Compound: O=C1CC[C@@]2(O)[C@H]3Cc4ccc(O)c5c4[C@@]2(CCN3CC2CC2)[C@H]1O5 [naltrexone, reference compound]
- duration of action on responding for heroin (in words) (rhesus monkeys [1]): less than one day
- duration of action on responding for heroin (in words) (rhesus monkeys [1]; listed as Naltrexone): returning to baseline levels the next day
- responding for cocaine (rhesus monkeys [1]): did not affect responding for cocaine
- responding for heroin (rhesus monkeys [1]): decreased responding for heroin
- antagonism of respiratory-depressant effects of heroin (rhesus monkeys [2]): no longer effective

Compound: Cc1ccc(/C=C/C(=O)N[C@@]23CCC(=O)[C@@H]4Oc5c(O)ccc6c5[C@@]42CCN(CC2CC2)[C@@H]3C6)cc1 [MCAM, methocinnamox]
- duration of action on responding for heroin (in words) (rhesus monkeys [1]): more than one week
- time responding for heroin remained decreased (rhesus monkeys [1]; after a single injection of antagonist): up to 8 days
- responding for cocaine (rhesus monkeys [1]): did not affect responding for cocaine
- responding for heroin (rhesus monkeys [1]): decreased responding for heroin
- antagonism of morphine (μ opioid receptors; 48 hours later): marked antagonism of morphine
- effect on antinociception of 1000 mg/kg morphine (μ opioid receptors; one hour after administration): prevented any antinociceptive effect
- reversal of opioid agonist side effects (respiratory depression) (rhesus monkeys [2]; 0.32 mg/kg subcutaneously, monkeys received heroin 0.1-1.0 mg/kg): reversed
- respiratory-depressant effects of heroin after antagonist (rhesus monkeys [2]; 4 days after administration of antagonist): not affected
- duration in reversing and protecting against heroin-induced respiratory depression (rhesus monkeys [2]): long duration
- antagonism of respiratory-depressant effects of heroin (rhesus monkeys [2]): continued to antagonize

Compound: C=CCN1CC[C@]23c4c5ccc(O)c4O[C@H]2C(=O)CC[C@@]3(O)[C@H]1C5 [naloxone, reference compound]
- duration in reversing and protecting against heroin-induced respiratory depression (rhesus monkeys [2]): short duration

Compound: CC(=O)Oc1ccc2c3c1O[C@H]1[C@@H](OC(C)=O)C=C[C@H]4[C@@H](C2)N(C)CC[C@@]341 [heroin, reference compound]
- decrease of respiration by heroin (rhesus monkeys [2]; monkeys breathing air, largest heroin dose tested, s.c.): ≤ 70 % of control
